Results as given in US10745384B2, “Indazole derivatives as αv integrin antagonists” (BRISTOL-MYERS SQUIBB COMPANY, priority 2016, dated 2020).
Where a name gives a salt, the structure may show the parent alone.

Target: T1, human αVβ6 (Homo sapiens, UniProt P06756+P18564)
T1 construct: purchased R & D systems 3817-AV
Assay: human αVβ6 HTRF binding assay
Details: recombinant human αVβ6 integrin, FITC-conjugated fibronectin
Method: All binding assays used the HTRF (homogeneous time resolved fluorescence) technology from Cisbio International, therefore all assays are described as HTRF binding assays. The assay results for the Examples are listed above together with the characterization data. The HTRF binding assays are established for the following integrins: human αVβ6, human αVβ1, human αVβ3, human αVβ5, and human αVβ8. All assays used the following assay buffer: 20 mM Tris, pH 7.4, 1 mM MgCl2, 1 mM MnCl2, 0.01% Tween 20, and 0.01% BSA. Alternatively, a SPA-based assay was used for evaluation of receptor binding.
The following describes the components and a representative procedure for the human αVβ6 HTRF binding assay: Recombinant human αVβ6 Integrin (R & D systems, 3817-AV) was biotinylated. Biotinylated human αVβ6 Integrin was added to assay vessel at a final concentration of 1.25 nM. FITC-conjugated fibronectin (Cytoskeleton, FNR02) was then added at the final concentration of 5 nM. The mixture was centrifuged at 600 rpm for three minutes using Thermo Fisher Heraeus Multifuge X3 centrifuge and then incubated at room temperature for an hour. Streptavidin Terbium (Cisbio international 610STLB) was then added at the final concentration of 0.625 nM. The resulting mixture was centrifuged at 600 rpm for three minutes using Thermo Fisher Heraeus Multifuge X3 centrifuge and then incubated at room temperature overnight in dark before reading HTRF signals. […]

T1 sequence (P06756 31-992 limits assumed): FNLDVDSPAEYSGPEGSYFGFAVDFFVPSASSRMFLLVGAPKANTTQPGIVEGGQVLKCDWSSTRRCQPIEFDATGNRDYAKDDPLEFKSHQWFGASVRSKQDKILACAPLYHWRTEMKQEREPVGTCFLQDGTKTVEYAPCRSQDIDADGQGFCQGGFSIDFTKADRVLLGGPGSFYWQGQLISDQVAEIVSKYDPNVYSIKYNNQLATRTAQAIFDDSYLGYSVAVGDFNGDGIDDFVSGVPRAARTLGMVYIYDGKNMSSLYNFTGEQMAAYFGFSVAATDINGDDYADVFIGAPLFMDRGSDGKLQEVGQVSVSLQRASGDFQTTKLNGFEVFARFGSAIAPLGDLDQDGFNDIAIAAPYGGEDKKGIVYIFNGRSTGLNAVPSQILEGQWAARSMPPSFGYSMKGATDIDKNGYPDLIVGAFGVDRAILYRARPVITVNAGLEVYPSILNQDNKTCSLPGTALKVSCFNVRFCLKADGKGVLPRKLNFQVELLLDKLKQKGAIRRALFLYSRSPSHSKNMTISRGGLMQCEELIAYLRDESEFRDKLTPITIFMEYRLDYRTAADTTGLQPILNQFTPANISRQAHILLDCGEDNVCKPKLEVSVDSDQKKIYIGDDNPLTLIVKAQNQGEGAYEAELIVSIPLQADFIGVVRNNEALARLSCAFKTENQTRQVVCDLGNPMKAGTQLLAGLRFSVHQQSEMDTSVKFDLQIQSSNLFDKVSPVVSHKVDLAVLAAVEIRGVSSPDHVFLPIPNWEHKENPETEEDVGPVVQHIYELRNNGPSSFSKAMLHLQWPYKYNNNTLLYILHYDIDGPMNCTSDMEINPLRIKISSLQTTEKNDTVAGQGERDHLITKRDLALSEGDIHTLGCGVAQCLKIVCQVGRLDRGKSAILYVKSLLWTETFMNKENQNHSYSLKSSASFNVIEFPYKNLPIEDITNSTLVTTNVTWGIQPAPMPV
T1 sequence (P18564 22-707 limits assumed): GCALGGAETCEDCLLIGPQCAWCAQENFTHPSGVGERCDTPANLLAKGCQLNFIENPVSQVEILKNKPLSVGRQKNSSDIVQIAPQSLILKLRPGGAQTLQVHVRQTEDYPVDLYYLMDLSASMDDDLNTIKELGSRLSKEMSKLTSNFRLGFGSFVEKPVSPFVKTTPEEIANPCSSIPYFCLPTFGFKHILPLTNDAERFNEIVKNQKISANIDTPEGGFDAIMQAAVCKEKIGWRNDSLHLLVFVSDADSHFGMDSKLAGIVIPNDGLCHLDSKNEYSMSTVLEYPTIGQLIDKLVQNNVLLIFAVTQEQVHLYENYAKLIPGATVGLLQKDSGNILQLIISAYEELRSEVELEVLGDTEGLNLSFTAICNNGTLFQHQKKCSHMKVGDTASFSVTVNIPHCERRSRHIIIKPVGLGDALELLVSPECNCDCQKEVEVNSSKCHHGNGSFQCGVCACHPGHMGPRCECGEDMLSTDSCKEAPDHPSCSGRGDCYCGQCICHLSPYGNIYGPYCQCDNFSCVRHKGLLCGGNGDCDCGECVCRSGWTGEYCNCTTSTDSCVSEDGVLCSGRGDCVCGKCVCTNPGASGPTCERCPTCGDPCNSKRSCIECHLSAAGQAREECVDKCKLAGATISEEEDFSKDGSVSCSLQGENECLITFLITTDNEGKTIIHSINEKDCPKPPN

SMILES | IC50 [µM]
COc1ccc(C(CC(=O)O)n2ncc3c(CCCc4ccc5c(n4)NCCC5)cccc32)cn1 (stereo not drawn) [Example 1, 3-(6-Methoxypyridin-3-yl)-3-(4-(3-(5,6,7,8-tetrahydro-1,8-naphthyridin-2-yl)propyl)-1H-indazol-1-yl)propanoic acid] | 1.6
Cn1cnc2ncc(C(CC(=O)O)n3ncc4cc(OCCc5ccc6c(n5)NCCC6)ccc43)cc21 (stereo not drawn) [Example 140, 3-(1-methyl-1H-imidazo[4,5-b]pyridin-6-yl)-3-(5-(2-(5,6,7,8-tetrahydro-1,8-naphthyridin-2-yl)ethoxy)-1H-indazol-1-yl)propanoic acid] | 0.0057
O=C(O)CCCNc1cncc(C(CC(=O)O)n2ncc3cc(OCCc4ccc5c(n4)NCCC5)ccc32)n1 (stereo not drawn) [Example 173, 4-((6-(2-Carboxy-1-(5-(2-(5,6,7,8-tetrahydro-1,8-naphthyridin-2-yl)ethoxy)-1H-indazol-1-yl)ethyl)pyrazin-2-yl)amino)butanoic acid] | 0.37
O=C(O)C[C@@H](c1cnc2ccccc2c1)n1cc2ccc(CCCC3CCc4cccnc4N3)cc2n1 (stereo partly drawn) [Example 88, (3S)-3-(Quinolin-3-yl)-3-(6-(3-(1,2,3,4-tetrahydro-1,8-naphthyridin-2-yl)propyl)-2H-indazol-2-yl)propanoic acid] | 0.02
COc1ccc(C(CC(=O)O)n2ncc3cc(CCCc4ccc5c(n4)NCCC5)ccc32)cn1 (stereo not drawn) [Example 20, 3-(6-Methoxypyridin-3-yl)-3-(5-(3-(5,6,7,8-tetrahydro-1,8-naphthyridin-2-yl)propyl)-1H-indazol-1-yl)propanoic acid] | 0.07
CN(C)Cc1cccc(C(CC(=O)O)n2ncc3cc(OCCc4ccc5c(n4)NCCC5)ccc32)c1 (stereo not drawn) [Example 60, 3-(3-((Dimethylamino)methyl)phenyl)-3-(5-(2-(5,6,7,8-tetrahydro-1,8-naphthyridin-2-yl)ethoxy)-1H-indazol-1-yl)propanoic acid, TFA] | 0.0051
O=C(O)CC(c1cccs1)n1ncc2cc(OCCc3ccc4c(n3)NCCC4)ccc21 (stereo not drawn) [Example 49, 3-(5-(2-(5,6,7,8-Tetrahydro-1,8-naphthyridin-2-yl)ethoxy)-1H-indazol-1-yl)-3-(thiophen-2-yl)propanoic acid, TFA] | 0.033
O=C(O)C(CCc1ccccc1)Cn1ncc2cc(OCCc3ccc4c(n3)NCCC4)ccc21 (stereo not drawn) [Example 73, 4-Phenyl-2-((5-(2-(5,6,7,8-tetrahydro-1,8-naphthyridin-2-yl)ethoxy)-1H-indazol-1-yl)methyl)butanoic acid] | 1.8
O=C(O)CC(c1ccc(F)cn1)n1ncc2cc(OCCc3ccc4c(n3)NCCC4)ccc21 (stereo not drawn) [Example 53, 3-(5-Fluoropyridin-2-yl)-3-(5-(2-(5,6,7,8-tetrahydro-1,8-naphthyridin-2-yl)ethoxy)-1H-indazol-1-yl)propanoic acid, TFA] | 0.15
O=C(N[C@@H](Cn1ncc2cc(CCCc3ccc4c(n3)NCCC4)ccc21)C(=O)O)OCc1ccccc1 [Example 36, (S)-2-(((Benzyloxy)carbonyl)amino)-3-(5-(3-(5,6,7,8-tetrahydro-1,8-naphthyridin-2-yl)propyl)-1H-indazol-1-yl)propanoic acid] | 0.077
O=C(O)CC(c1cncc(Cl)c1)n1ncc2cc(OCCc3ccc4c(n3)NCCC4)ccc21 (stereo not drawn) [Example 42, 3-(5-Chloropyridin-3-yl)-3-(5-(2-(5,6,7,8-tetrahydro-1,8-naphthyridin-2-yl)ethoxy)-1H-indazol-1-yl)propanoic acid, TFA] | 0.0044
O=C(O)CC(c1cnc2c(cnn2C2CCCCO2)c1)n1ncc2cc(OCCc3ccc4c(n3)NCCC4)ccc21 (stereo not drawn) [Example 103, 3-(5-(2-(5,6,7,8-tetrahydro-1,8-naphthyridin-2-yl)ethoxy)-1H-indazol-1-yl)-3-(1-(tetrahydro-2H-pyran-2-yl)pyrazolo[3,4-b]pyridin-5-yl)propanoic acid, TFA] | 0.0054
COc1ccc(C(CC(=O)O)n2ncc3c(CCc4ccc5c(n4)NCCC5)cccc32)cn1 (stereo not drawn) [Example 174, 3-(6-Methoxypyridin-3-yl)-3-(4-(2-(5,6,7,8-tetrahydro-1,8-naphthyridin-2-yl)ethyl)-1H-indazol-1-yl)propanoic acid] | 0.54
NCc1cncc(C(CC(=O)O)n2ncc3cc(OCCc4ccc5c(n4)NCCC5)ccc32)c1 (stereo not drawn) [Example 131, 3-(5-(Aminomethyl)pyridin-3-yl)-3-(5-(2-(5,6,7,8-tetrahydro-1,8-naphthyridin-2-yl)ethoxy)-1H-indazol-1-yl)propanoic acid] | 0.03
CS(=O)(=O)NCc1cncc(C(CC(=O)O)n2ncc3cc(OCCc4ccc5c(n4)NCCC5)ccc32)c1 (stereo not drawn) [Example 170] | 0.018
O=C(O)CC(c1cccnc1)n1ncc2cc(OCCc3ccc4c(n3)NCCC4)ccc21 (stereo not drawn) [Example 50, 3-(Pyridin-3-yl)-3-(5-(2-(5,6,7,8-tetrahydro-1,8-naphthyridin-2-yl)ethoxy)-1H-indazol-1-yl)propanoic acid, TFA] | 0.08
O=C(O)CC(c1ccnc(N2CCCC2=O)c1)n1ncc2cc(OCCc3ccc4c(n3)NCCC4)ccc21 (stereo not drawn) [Example 93, 3-(2-(2-Oxopyrrolidin-1-yl)pyridin-4-yl)-3-(5-(2-(5,6,7,8-tetrahydro-1,8-naphthyridin-2-yl)ethoxy)-1H-indazol-1-yl)propanoic acid, TFA] | 0.0081
O=C(O)CC(c1ccc2c(c1)oc1ccccc12)n1ncc2c(OCCc3ccc4c(n3)NCCC4)cccc21 (stereo not drawn) [Example 30, 3-(Dibenzo[b,d]furan-3-yl)-3-(4-(2-(5,6,7,8-tetrahydro-1,8-naphthyridin-2-yl)ethoxy)-1H-indazol-1-yl)propanoic acid] | 1.2
COc1cncc(C(CC(=O)O)n2ncc3cc(OCCc4ccc5c(n4)NCCC5)ccc32)n1 (stereo not drawn) [Example 149, 3-(6-methoxypyrazin-2-yl)-3-(5-(2-(5,6,7,8-tetrahydro-1,8-naphthyridin-2-yl)ethoxy)-1H-indazol-1-yl)propanoic acid] | 2.3
Cc1cc(C)nc(C(CC(=O)O)n2ncc3cc(OCCc4ccc5c(n4)NCCC5)ccc32)n1 (stereo not drawn) [Example 55, 3-(4,6-Dimethylpyrimidin-2-yl)-3-(5-(2-(5,6,7,8-tetrahydro-1,8-naphthyridin-2-yl)ethoxy)-1H-indazol-1-yl)propanoic acid, TFA] | 0.92
CC(C)(O)c1cncc([C@H](CC(=O)O)n2ncc3cc(OCCc4ccc5c(n4)NCCC5)ccc32)c1 [Example 146, (S)-3-(5-(2-hydroxypropan-2-yl)pyridin-3-yl)-3-(5-(2-(5,6,7,8-tetrahydro-1,8-naphthyridin-2-yl)ethoxy)-1H-indazol-1-yl)propanoic acid] | 0.0052
O=C(O)CC(c1cnc2c(c1)CCCN2)n1ncc2cc(OCCc3ccc4c(n3)NCCC4)ccc21 (stereo not drawn) [Example 172, 3-(5-(2-(5,6,7,8-Tetrahydro-1,8-naphthyridin-2-yl)ethoxy)-1H-indazol-1-yl)-3-(5,6,7,8-tetrahydro-1,8-naphthyridin-3-yl)propanoic acid] | 0.012
O=C(O)CC(c1cccc(N2CCOCC2)c1)n1ncc2cc(OCCc3ccc4c(n3)NCCC4)ccc21 (stereo not drawn) [Example 58, 3-(3-Morpholinophenyl)-3-(5-(2-(5,6,7,8-tetrahydro-1,8-naphthyridin-2-yl)ethoxy)-1H-indazol-1-yl)propanoic acid, TFA] | 0.0017
CN1CCN(c2cncc(C(CC(=O)O)n3ncc4cc(OCCc5ccc6c(n5)NCCC6)ccc43)c2)CC1 (stereo not drawn) [Example 156, 3-(5-(4-methylpiperazin-1-yl)pyridin-3-yl)-3-(5-(2-(5,6,7,8-tetrahydro-1,8-naphthyridin-2-yl)ethoxy)-1H-indazol-1-yl)propanoic acid] | 0.0088
COc1ccc(C(CC(=O)O)n2ncc3cc(OCCc4ccc5c(n4)NCCC5)ccc32)cc1F (stereo not drawn) [Example 44, 3-(3-Fluoro-4-methoxyphenyl)-3-(5-(2-(5,6,7,8-tetrahydro-1,8-naphthyridin-2-yl)ethoxy)-1H-indazol-1-yl)propanoic acid, TFA] | 0.00871
CS(=O)(=O)c1cncc([C@@H](CC(=O)O)n2ncc3cc(OCCc4ccc5c(n4)NCCC5)ccc32)c1 [Example 165, (R)-3-(5-(methylsulfonyl)pyridin-3-yl)-3-(5-(2-(5,6,7,8-tetrahydro-1,8-naphthyridin-2-yl)ethoxy)-1H-indazol-1-yl)propanoic acid] | 0.54
COC(=O)NCc1cncc([C@@H](CC(=O)O)n2ncc3cc(OCCc4ccc5c(n4)NCCC5)ccc32)c1 [Example 168] | 0.74
O=C(O)CC(c1ccncc1)n1ncc2cc(OCCc3ccc4c(n3)NCCC4)ccc21 (stereo not drawn) [Example 75, 3-(Pyridin-4-yl)-3-(5-(2-(5,6,7,8-tetrahydro-1,8-naphthyridin-2-yl)ethoxy)-1H-indazol-1-yl)propanoic acid, 2 TFA] | 0.023
O=C(O)CC(c1cncc(-n2cccn2)c1)n1ncc2cc(OCCc3ccc4c(n3)NCCC4)ccc21 (stereo not drawn) [Example 161, 3-(5-(1H-pyrazol-1-yl)pyridin-3-yl)-3-(5-(2-(5,6,7,8-tetrahydro-1,8-naphthyridin-2-yl)ethoxy)-1H-indazol-1-yl)propanoic acid] | 0.0055
O=C(O)C[C@@H](c1cnc2nccnc2c1)n1ncc2cc(OCCc3ccc4c(n3)NCCC4)ccc21 [Example 129, (S)-3-(Pyrido[2,3-b]pyrazin-7-yl)-3-(5-(2-(5,6,7,8-tetrahydro-1,8-naphthyridin-2-yl)ethoxy)-1H-indazol-1-yl)propanoic acid] | 0.48
